Assay results reported in US20250340569A1, “INHIBITORS OF KIF18A AND USES THEREOF” (Insilico Medicine IP Limited, priority 2023, published 2025).

How the values were obtained:
[1] = system: OVCAR-3; assay: OVCAR3 CTG assay; type: cell-based; details: Homo sapiens, OVCAR-3, 144 h; CellTiter-Glo, 6 days incubation
From the text: Example B2: OVCAR3 CTG Assay
• a) Preparation of complete medium: Added FBS and appropriate additives according to the information sheet provided by the vendor. Mix gently. • b) Checked the cell name and complete medium and passage number marked on the flask. For adherent cell lines, refer to c to k. For suspension cell lines, refer to g to k. • c) Removed and discarded culture medium using a vacuum pump. • d) Briefly rinsed the cell layer with 0.25% (w/v) Trypsin-0.038% (w/v) EDTA solution to remove all traces of serum that contains trypsin inhibitor. • e) Added 3.0 ml of Trypsin-EDTA solution to flask and observed cells under an inverted microscope until cell layer is dispersed. • f) Added 9.0 ml of complete growth medium and aspirated cells by gently pipetting. • g) Transfered the cell suspension to a centrifuge tube and centrifuged at 1000 rpm for 4 minutes. • h) Discarded the supernatant using a vacuum pump. • i) Added appropriate volume of complete medium. Suspended the cell pellet by gently pipetting. • j) Counted the cell numbers with Vi-cell XR and adjusted cells to appropriate density. • k) Added 190 μL of cell suspension to 96-well opaque-walled clear bottom plates according to the planned plate layout and placed the plates in the CO2 incubator overnight.
2) Compound Stock Preparation:
• a) Plate preparation of testing articles:
The compounds were dissolved in DMSO to prepare 10 mM stock solution. The start working concentration (2 mM) was prepared with DMSO.
b) Staurosporine Plate Preparation:
0.4 mM Staurosporine was prepared in DMSO at working concentration.
The 20× compound containing medium was prepared according to the plate map. 10 μL of 20× compound containing medium was added into each well of the assay plates. Centrifuged at 1000 rpm for 1 minute. The total dilution was 200-fold.
3) Cells were Incubated with the Compounds for 6 Days at 5% CO2, 37° C.
Assay Measurement for CTG Assay
1) Preparation of Reagents
• a) Thawed the CellTiter-Glo buffer and equilibrated to room temperature prior to use. • b) Equilibrated the lyophilized CellTiter-Glo substrate to room temperature prior to use. • c) Transfered the appropriate volume of CellTiter-Glo buffer into the amber bottle containing CellTiter-Glo substrate to reconstitute the lyophilized enzyme/substrate mixture. This formed the CellTiter-Glo reagent. • d) Mixed by gently vortexing, swirling or by inverting the contents to obtain a homogeneous solution. The CellTiter-Glo substrate went into solution easily in less than one minute.
• a) Observed the cell morphology under an inverted microscope after corresponding treatment. • b) Equilibrated the plate and its contents to room temperature for approximately 30 minutes. • c) Added 100 μL of CellTiter-Glo reagent to the assay plate by Multidrop Combi instrument. • d) Mixed contents for 10 minutes on an orbital shaker to induce cell lysis. • e) Allowed the plate to incubate at room temperature for 10 minutes to stabilize luminescent signal. • f) Pasted the clear bottom with white back seal and record luminescence with Envision. The settings should be: Luminescence, measurement time 0.1 s.

[2] = molecular target: T1, Kif18A (Homo sapiens, UniProt Q8NI77); assay: KIF18A assay (ADP Glo); details: biochemical assay, ADP Glo luminescence
T1 sequence (Q8NI77 1-898): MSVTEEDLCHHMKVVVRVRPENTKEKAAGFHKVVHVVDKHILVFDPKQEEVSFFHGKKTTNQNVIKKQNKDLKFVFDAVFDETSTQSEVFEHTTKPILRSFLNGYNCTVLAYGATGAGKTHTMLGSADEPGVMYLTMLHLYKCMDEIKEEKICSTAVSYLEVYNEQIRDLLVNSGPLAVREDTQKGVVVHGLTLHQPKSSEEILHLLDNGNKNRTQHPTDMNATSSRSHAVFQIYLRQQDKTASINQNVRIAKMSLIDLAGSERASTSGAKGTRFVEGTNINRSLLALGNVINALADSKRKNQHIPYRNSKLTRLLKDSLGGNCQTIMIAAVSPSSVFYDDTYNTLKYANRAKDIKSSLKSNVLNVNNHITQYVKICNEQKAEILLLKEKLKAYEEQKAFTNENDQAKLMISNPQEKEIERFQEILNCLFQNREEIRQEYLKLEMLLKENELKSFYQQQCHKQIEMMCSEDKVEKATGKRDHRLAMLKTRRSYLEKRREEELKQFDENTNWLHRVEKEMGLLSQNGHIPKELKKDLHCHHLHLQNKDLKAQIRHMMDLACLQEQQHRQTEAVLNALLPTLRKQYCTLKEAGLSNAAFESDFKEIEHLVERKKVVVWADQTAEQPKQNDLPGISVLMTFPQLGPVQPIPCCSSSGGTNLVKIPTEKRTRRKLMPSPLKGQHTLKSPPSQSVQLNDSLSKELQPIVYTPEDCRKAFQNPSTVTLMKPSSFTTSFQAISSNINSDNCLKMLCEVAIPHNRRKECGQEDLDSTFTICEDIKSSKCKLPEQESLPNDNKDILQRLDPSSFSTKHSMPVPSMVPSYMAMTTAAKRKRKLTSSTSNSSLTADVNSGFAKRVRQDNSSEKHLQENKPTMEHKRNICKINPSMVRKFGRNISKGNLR
Description: The KIF18A assay was performed as follows:
1.1. Prepared 1× Kinase Buffer
• a) Added 40 μL test compound to 384-well dilution plate • b) Diluted compound 1:3 in succession in DMSO for each column for 10 pts • c) Transferred 0.1 μL diluted compound solution to 384 assay plate using Echo, each column containing 2 replicates • d) Added 5 μL enzyme working solution to 384-well assay plate, centrifuge 1000 RPM for 1 min e) Incubated at 25° C. for 15 min • f) Added 5 μL ATP working solution to initiate reaction • g) Incubated at 25° C. for 60 min • h) Added 10 μL ADP Glo reagent, centrifuge 1000 RPM for 1 min • i) Incubated at 25° C. for 60 min • j) Added 20 μL kinase detection reagent, centrifuge 1000 RPM for 1 min • k) Incubated at 25° C. for 60 min • l) Read Luminescence Signal on Envision 2104 plate reader.
1.3. Data Analysis—Calculated IC50 and Plot Dose-Response Curve of Compounds:
Calculated IC50 by fitting % Inhibition values and log of compound concentrations to nonlinear regression (dose response−variable slope) with GraphPad 6.0.
[formula] • X: log of inhibitor concentration; Y: % Inhibition

IC50 [1] [nM] | IC50 [2] [nM] | Structure (SMILES)
1000 to 10000 | 10 to 100 | Cc1cc2nc(n1)N(C)C[C@@H](C)COCC1(C)CCN(CC1)c1cc(NS(=O)(=O)CCO)ccc1C(=O)N2 [EX33-B]
100 to 1000 | 10 to 100 | Cc1cc2nc(n1)OCCOCC1(C)CCN(CC1)c1cc(NS(=O)(=O)CCO)ccc1C(=O)N2 [EX03]
10 to 100 | < 10 | Cc1cc2nc(n1)NCC(F)COCC1(C)CCN(CC1)c1cc(NS(=O)(=O)CCO)ccc1C(=O)N2 (stereo not drawn) [EX24]
10 to 100 | 10 to 100 | Cc1cc2nc(n1)NCCCCOCC1(C(F)(F)F)CCN(CC1)c1cc(NS(=O)(=O)CCO)ccc1C(=O)N2 [EX59]
10 to 100 | 10 to 100 | Cc1cc2nc(n1)NCCCOCC1(C)CCN(CC1)c1cc(NS(=O)(=O)CCO)ccc1C(=O)N2 [EX12]
< 10 | < 10 | Cc1cc2nc(n1)NCC(C)COCC1(C)CCN(CC1)c1cc(NS(=O)(=O)CCO)ccc1C(=O)N2 (stereo not drawn) [EX19]
10 to 100 | 10 to 100 | CN1CCCOCC2(C(F)(F)F)CCN(CC2)c2cc(NS(=O)(=O)CCO)ccc2C(=O)Nc2ccc(C#N)c1n2 [EX73]
10 to 100 | < 10 | Cc1cc2nc(n1)OCCCOCC1(C)CCN(CC1)c1cc(NS(=O)(=O)CCO)ccc1C(=O)N2 [EX05]
100 to 1000 | 10 to 100 | CC12CCN(CC1)c1cc(NS(=O)(=O)CCO)ccc1C(=O)Nc1ccc(=O)n(n1)CCCCOC2 [EX13]
100 to 1000 | 10 to 100 | CN1CCOCC2(C)CCN(CC2)c2cc(NS(=O)(=O)CCO)ccc2C(=O)Nc2cccc(c2)C1=O [EX10]
1000 to 10000 | 10 to 100 | Cc1cc2nc(n1)N(CC(F)(F)F)CCCOCC1(C)CCN(CC1)c1cc(NS(=O)(=O)CCO)ccc1C(=O)N2 [EX26]
10 to 100 | < 10 | CN1CCCOCC2(C(F)(F)F)CCN(CC2)c2cc(NS(=O)(=O)CCO)ccc2C(=O)Nc2ccnc1n2 [EX74]
100 to 1000 | < 10 | Cc1cc2nc(n1)N(C)CCCOCC1(C)CCN(CC1)c1cc(NS(=O)(=O)CCO)ccc1C(=O)N2 [EX06]

Second part, the compound before the results:

Structure (SMILES) | IC50 [1] [nM] | IC50 [2] [nM]
[2H]C([2H])([2H])N1CCCOCC2(C(F)(F)F)CCN(CC2)c2cc(NS(=O)(=O)CCO)ccc2C(=O)Nc2cc(C)cc1n2 [EX67] | 100 to 1000 | 10 to 100
C[C@@H]1CNc2cccc(n2)NC(=O)c2ccc(NS(=O)(=O)CCO)cc2N2CCC(C(F)(F)F)(CC2)COC1 [EX56-B] | < 10 | < 10
Cc1cc2nc(n1)N(C)CCCOCC1(C)CCN(CC1)c1cc(S(=O)(=O)NC(C)(C)C)ccc1C(=O)N2 [EX15] | 100 to 1000 | 10 to 100
CNS(=O)(=O)c1ccc2c(c1)N1CCC(C)(CC1)COCCCN(C)c1nc(C)cc(n1)NC2=O [EX16] | 100 to 1000 | 10 to 100
Cc1cc2nc(n1)NCCOC[C@@H]1CCC[C@H](COc3cc(NS(=O)(=O)CCO)ccc3C(=O)N2)C1 (relative stereo) [EX106] | 1000 to 10000 | 100 to 1000
Cc1cc2nc(n1)NCCOCCC1(C)CCN(CC1)c1cc(NS(=O)(=O)CCO)ccc1C(=O)N2 [EX23] | 10 to 100 | 10 to 100
CN1CCCOCC2(C(F)(F)F)CCN(CC2)c2nc(NS(=O)(=O)CCO)ccc2C(=O)Nc2cccc1n2 [EX72] | 100 to 1000 | < 10
COC1CNc2nc(C)cc(n2)NC(=O)c2ccc(NS(=O)(=O)CCO)cc2N2CCC(C)(CC2)COC1 (stereo not drawn) [EX31] | 10 to 100 | 10 to 100
Cc1cc2nc(n1)N1CCC(F)(F)[C@@H](CCCC3(C)CCN(CC3)c3cc(NS(=O)(=O)CCO)ccc3C(=O)N2)C1 [EX115-B] | 10 to 100 | 10 to 100
[2H]C([2H])([2H])N1CCCOCC2(C(F)(F)F)CCN(CC2)c2cc(NS(=O)(=O)CCO)ccc2C(=O)Nc2ccnc1c2 [EX58] | 10 to 100 | 10 to 100
[2H]C([2H])([2H])N1CCCOCC2(C(F)(F)F)CCN(CC2)c2cc(NS(=O)(=O)CCO)ccc2C(=O)Nc2cccc1n2 [EX48] | 10 to 100 | 10 to 100
CN1CCCOCC2(C(F)(F)F)CCN(CC2)c2cc(NS(=O)(=O)CCO)ncc2C(=O)Nc2cccc1n2 [EX82] | 10 to 100 | 10 to 100
CC1CNc2cc(ccn2)NC(=O)c2ccc(NS(=O)(=O)CCO)cc2N2CCC(C(F)(F)F)(CC2)COC1 (stereo not drawn) [EX57] | 10 to 100 | 10 to 100
Cc1cc2nc(n1)NC[C@H](C)COCC1(C(F)(F)F)CCN(CC1)c1cc(NS(=O)(=O)CCO)ccc1C(=O)N2 [EX36-A] | 10 to 100 | 10 to 100
Cc1cc2nc(n1)NCCCOCC1(C(F)(F)F)CCN(CC1)c1cc(NS(=O)(=O)CCO)ccc1C(=O)N2 [EX17] | < 10 | < 10
CC12CCN(CC1)c1cc(NS(C)(=O)=O)ccc1C(=O)Nc1cccc(n1)OCCCOC2 [EX08] | 100 to 1000 | < 10
Cc1cc2nc(n1)N1CCO[C@H](COCC3(C(F)F)CCN(CC3)c3cc(NS(=O)(=O)CCO)ccc3C(=O)N2)C1 [EX113-A] | < 10 | 10 to 100
Cc1cc2nc(n1)N(C1CC1)CCCOCC1(C(F)(F)F)CCN(CC1)c1cc(NS(=O)(=O)CCO)ccc1C(=O)N2 [EX45] | 100 to 1000 | 10 to 100
O=C1Nc2cccc(n2)OCCCOCC2CCN(CC2)c2cc(NS(=O)(=O)CCO)ccc21 [EX11] | 100 to 1000 | 10 to 100
Cc1cc2nc(n1)NCCCOCC1(C)CCN(CC1)c1cc(S(=O)(=O)NC(C)(C)C)ccc1C(=O)N2 [EX25] | < 10 | 10 to 100
Cc1cc2nc(n1)N(C)CC(C)COCC1(C(F)(F)F)CCN(CC1)c1cc(NS(=O)(=O)CCO)ccc1C(=O)N2 (stereo not drawn) [EX35] | 100 to 1000 | 10 to 100
O=C1Nc2cccc(n2)N2CCO[C@@H](COCC3(C(F)(F)F)CCN(CC3)c3cc(NS(=O)(=O)CCO)ccc31)C2 [EX81-A] | < 10 | 10 to 100
Cc1cc2nc(n1)NCCCOCC1(C)CCN(CC1)c1cc(S(N)(=O)=O)ccc1C(=O)N2 [EX25-A] | 10 to 100 | 10 to 100
